In experiment [1] the target is T1, human jejunal NK2 receptor (Homo sapiens, UniProt P21452).
T1 construct: expressed in transfected cells; host or cells: HSKR-1 cells (mouse 3T3 fibroblasts)
T1 sequence (P21452 1-398): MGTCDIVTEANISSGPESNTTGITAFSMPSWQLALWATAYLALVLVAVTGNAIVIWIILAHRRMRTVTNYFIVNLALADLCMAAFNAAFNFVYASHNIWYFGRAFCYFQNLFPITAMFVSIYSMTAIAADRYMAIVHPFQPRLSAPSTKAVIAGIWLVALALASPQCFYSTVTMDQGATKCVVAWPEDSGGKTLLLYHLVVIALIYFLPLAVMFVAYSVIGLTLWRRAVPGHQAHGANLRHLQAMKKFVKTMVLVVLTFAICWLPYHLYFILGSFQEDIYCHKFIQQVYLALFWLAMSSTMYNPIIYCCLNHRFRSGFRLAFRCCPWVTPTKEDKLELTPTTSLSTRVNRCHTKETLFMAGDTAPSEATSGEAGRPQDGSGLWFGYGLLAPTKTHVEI
The experiment in a line: Antagonism of iodinated tachykinin binding to NK2 receptor (125iodohistidyl-1-neurokinin A, HSKR-1 cell membranes). A digest of the protocol:
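Membranes (HSKR-1 are mouse 3T3 fibroblasts expressing human NK2) incubated at room temperature with 0.1 nM radioligand in 50 mM Tris-HCl pH 7.4 with 0.1% BSA, 2 mM MnCl2, protease inhibitors and 1 µM thiorphan, for 90 min (NK1) or 2 hr (NK2/NK3). Filter-bound counts; nonspecific binding with 1 µM cognate peptide; IC50 by nonlinear regression.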

The target of a further experiment is T2, NK-3 receptor (Cavia porcellus, UniProt P30098).
T2 construct: freshly collected guinea pig cerebral cortex; from tissue; host or cells: guinea pig cerebral cortex membranes
T2 sequence (P30098 1-440): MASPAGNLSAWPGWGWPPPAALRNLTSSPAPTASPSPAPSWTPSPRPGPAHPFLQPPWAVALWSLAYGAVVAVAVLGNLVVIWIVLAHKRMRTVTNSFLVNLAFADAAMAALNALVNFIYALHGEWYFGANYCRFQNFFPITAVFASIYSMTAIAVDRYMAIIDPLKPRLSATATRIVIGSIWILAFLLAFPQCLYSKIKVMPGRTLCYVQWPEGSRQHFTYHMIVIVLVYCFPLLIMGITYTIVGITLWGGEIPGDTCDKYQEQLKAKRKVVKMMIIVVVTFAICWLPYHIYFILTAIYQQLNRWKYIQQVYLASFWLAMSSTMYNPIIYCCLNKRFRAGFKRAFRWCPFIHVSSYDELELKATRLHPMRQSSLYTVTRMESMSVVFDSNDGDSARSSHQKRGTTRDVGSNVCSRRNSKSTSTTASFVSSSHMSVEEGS
In words: Antagonism of iodinated tachykinin binding to NK-3 receptor (125I-Bolton Hunter labeled Lys-4 eledoisin, guinea pig cerebral cortex membranes). The protocol: The NK1 receptor affinity of proposed tachykinin antagonists was devaluated in guinea pig lungs (Keystone Biologicals, Cleveland, OH), affinity for the NK2 receptor evaluated in HSKR-1 cells (which are mouse 3T3 fibroblasts expressing the human jejunal NK2 receptor) and NK-3 receptor affinity was evaluated in freshly collected guinea pig cerebral cortex. Tissues or cells were homogenized with a Polytron in 15 volumes of 50 mM Tris-HCl buffer (pH 7.4, 4°C) and centrifuged. The pellet was resuspended in Tris-HCl buffer and was centrifuged; the pellet was washed twice by resuspension. The final pellet was resuspended at a concentration of 40 mg/ml for tissues (guinea pig lung and cerebral cortex) and 20 mg/ml for cells in incubation buffer and remained at room temperature for at least 15 min prior to use. Receptor binding was initiated by addition of 250 µl membrane preparation in duplicate to 0.1 nM of the following radioligands: ^125I-Bolton Hunter Lys-3 labeled substance P; ^125iodohistidyl-1-neurokinin A; and ^125I-Bolton Hunter labeled Lys-4 eledoisin in a final volume of 500 µl of buffer containing 50 mM Tris-HCl (pH 7.4 at room temperature), 0.1% bovine serum albumin, 2 mM MnCl2, 40 µg/ml bacitracin, 4 µg/ml leupeptin and chymostatin, 1 µM thiorphan and various doses of the putative tachykinin antagonists. Incubations were performed at room temperature for 90 min (NK1 receptor assays) or 2 hr (NK2 and NK3 receptor assays); binding was terminated by addition of 50 mM Tris-HCl buffer (pH 7.4, 4°C) and filtration under vacuum through GF/B filters presoaked with 0.1% polyethyleneimine (NK1 receptor assays) or 0.5% bovine serum albumin (NK2 and NK3 receptor assays). Filter bound radioactivity was quantitated in a gamma counter. Nonspecific binding was defined as binding in the presence of 1 µM substance P, neurokinin A, or eledoisin. Specific binding was calculated by subtracting nonspecific binding from total binding. Competition of iodinated SP, NKA, or eledoisin binding by test compounds or standards was expressed as a percentage of this maximum competition. IC50 values (concentration required to inhibit 50% of receptor binding) were generated for each of the test compounds by nonlinear regression using an iterative curve fitting program (GraphPAD Inplot, San Diego, CA).

Experiment [2] concerns NKA-induced respiratory effects. In words: Antagonism of NKA aerosol induced respiratory effects in conscious guinea pigs (whole body plethysmography). The format is in vivo, guinea pig. As to conditions: 20 min prior to NKA aerosol (0.05%); for DYSPNEA ONSET: mean and SEM. The protocol:
In vivo experiments were performed using male Duncan Hartley guinea pigs (250-350g). Changes in conscious breathing patterns were monitored in four animals simultaneously using modified whole body plethysmography consisting of four small plexiglass boxes each connected to a reference box via Validyne DP 45-16 differential pressure transducers. The 4 boxes were equipped with an air supply line (also used for aerosol delivery) and an exhaust air line. Supply and exhaust lines were of the same length and narrow bore and arose from a common supply chamber and vented to a common exhaust chamber. This system was used to ensure that fluctuations in supply air and atmospheric pressure would remain in phase and be eliminated from the net signal by the differential pressure transducers. The analog pressure signals were digitalized via a Data Translation DT2821 A to D board. Data were collected at a rate of 100 samples/second/animal. Each cycle of pressure change was analyzed using the following parameters: rising and falling slope determined between minimum and maximum pressures, the ratio of rising over falling slope, and the magnitude of the change between initial trough pressure and peak cycle pressure. Using these values (and observing the animals) the pressure cycles were characterized into normal breaths, forced exhalations (apparent by abdominal heaving), significant respiratory events (SREs; usually coughs, less often sneezes or gasps which were characterized by transient, extremely large pressure increases which were distinguishable from noise) and movement/noise with a PCAT 286 running a System V UNIX operating system. Dyspnea was defined as a significant, sustained increase in plethysmograph pressure which was associated with an observable shift to labored breathing in the animal.
During the course of a typical experiment in which airway responsiveness to various bronchoconstricting agents was examined, aerosols were delivered for 19 min (0.33 ml/min) using a DeVilbiss Ultraneb 99 ultrasonic nebulizer and animals monitored during this time. Prior to nebulization, 1 min of resting breathing was collected to establish a baseline pressure. […] The vehicle for nebulization of all bronchoconstrictive agents was phosphate buffered saline (pH 7.4) which elicited no respiratory effects itself. Putative tachykinin antagonists were administered either (i.v.) 20 min prior to onset of aerosol exposure or orally 1 hour prior to onset (to guinea pigs after an overnight fast).
Table 6 illustrates the effects of the compounds of Example 3; Example 20A; and Example 5A on respiratory effects induced by NKA aerosol. […] These effects were dose dependent i.e. the higher the dose of compound, the greater attenuation of NKA-mediated effects. […]
Compounds were administered 20 min prior to initiation of NKA aerosol (0.05%). Values for each treatment represent the mean and SEM of data from 5-37 animals per dose.

Structures are written as SMILES. Structures can show the parent of a compound that is named as a salt. Where two headings read alike, the source gives them in different places.

The IC50 is the concentration that inhibits the measured activity by half. Consider `COc1cc(C(=O)N2CCC(CCN3CCC(C(N)=O)(c4ccccc4)CC3)(c3ccc(Cl)c(Cl)c3)C2)cc(OC)c1OC` (racemic) [Example 3A, 1-[2-[3-(3,4-dichloro-phenyl-3-yl)-1-(3,4,5-trimethoxy-benzoyl)-pyrrolidin-3-yl]-ethyl] -4-phenyl-piperidine-4-carboxylic acid amide hydrochloride], for which the IC50 worked out at 21 nM in experiment [1] and 54.2 nM on NK-3 receptor.
On to `COc1cccc(OC)c1C(=O)N1CCC(CCN2CCC(C(N)=O)(c3ccccc3)CC2)(c2ccc(Cl)c(Cl)c2)C1` (racemic) [Example 5A, 1-[2-[3-(3,4-dichloro-phenyl-3-yl)-1-(2,6-dimethoxy-benzoyl)-pyrrolidin-3-yl]-ethyl]-4-phenyl-piperidine-4-carboxylic acid amide hydrochloride], for which the IC50 in experiment [1] (HSKR-1 cells (mouse 3T3 fibroblasts expressing human jejunal NK2 receptor), mean of several experiments, read-out: NK-2 IC50) worked out at 40 nM. In addition, in experiment [2] (5 mg/kg), the “DYSPNEA INCIDENCE” value was 60% (3/5) and the “DYSPNEA ONSET” value turned out to be 654 ± 37 s. For the same compound, in experiment [2] (10 mg/kg), the “DYSPNEA INCIDENCE” value is recorded as 54% (7/13) and the “DYSPNEA ONSET” value was found to be 608 ± 65 s.
With `COc1cc(C(=O)N2CCC(CCN3CCC(C(N)=O)(c4ccccc4)CC3)(c3ccc(Cl)c(Cl)c3)C2)cc(OC)c1OC` (centres unmarked) [Example 3, 1-[2-[3-(3,4-dichloro-phenyl)-1-(3,4,5-trimethoxy-benzoyl)-pyrrolidin-3-yl]-ethyl]-4-phenyl-piperidine-4-carboxylic acid amide], the IC50 in experiment [1] amounted to 15 nM. For the same compound, in experiment [1] (result in words), the “affinity for NK2 receptors” value was “high affinity”. Moreover, the “DYSPNEA INCIDENCE” value in experiment [2] (5 mg/kg) is reported as 86% (6/7); in experiment [2] (10 mg/kg), 60% (6/10). Moreover, the “DYSPNEA ONSET” value worked out at 394 ± 32 s in experiment [2] (5 mg/kg) and 801 ± 104 s in experiment [2] (10 mg/kg). Also, the “affinity for NK3 receptors” value at NK-3 receptor (result in words) is recorded as “high affinity”.
